Data: ChEMBL document CHEMBL1255497, “Azole resistance profile of amino acid changes in Aspergillus fumigatus CYP51A based on protein homology modeling” (2010)
Values after ≈ are worked out from the molar mass of the structure shown.

Assays:
Aspergillus fumigatus [1] = assay: Antimicrobial activity against itraconazole-susceptible Aspergillus fumigatus clinical isolate expressing cyp51A F46Y, G89G, L358L, E427K, C454C mutant gene by CLSI method; assay type: functional
Aspergillus fumigatus [2] = assay: Antimicrobial activity against itraconazole-resistant Aspergillus fumigatus environmental isolate expressing cyp51A L98H, S52T mutant gene by CLSI method
Aspergillus fumigatus [3] = assay: Antimicrobial activity against itraconazole-resistant Aspergillus fumigatus clinical isolate expressing cyp51A G54E mutant gene by CLSI method; assay type: functional
Aspergillus fumigatus [4] = assay: Antimicrobial activity against itraconazole-resistant Aspergillus fumigatus clinical isolate expressing cyp51A G54W mutant gene by CLSI method; assay type: functional
Aspergillus fumigatus [5] = assay: Antimicrobial activity against itraconazole-susceptible Aspergillus fumigatus clinical isolate expressing cyp51A F46Y, G89G, E427K, C454C mutant gene by CLSI method; assay type: functional
Aspergillus fumigatus [6] = assay: Antimicrobial activity against itraconazole-resistant Aspergillus fumigatus clinical isolate expressing cyp51A M220V mutant gene by CLSI method; assay type: functional
Aspergillus fumigatus [7] = assay: Antimicrobial activity against itraconazole-resistant Aspergillus fumigatus environmental isolate expressing cyp51A L98H, Q141H mutant gene by CLSI method
Aspergillus fumigatus [8] = assay: Antimicrobial activity against itraconazole-susceptible Aspergillus fumigatus clinical isolate expressing cyp51A F46Y, G89G, M172V, L358L, E427K, C454C mutant gene by CLSI method; assay type: functional
Aspergillus fumigatus [9] = assay: Antimicrobial activity against itraconazole-resistant Aspergillus fumigatus clinical isolate expressing wild type cyp51A gene by CLSI method; assay type: functional
Aspergillus fumigatus [10] = assay: Antimicrobial activity against itraconazole-susceptible Aspergillus fumigatus clinical isolate expressing wild type cyp51A gene by CLSI method; assay type: functional
Aspergillus fumigatus [11] = assay: Antimicrobial activity against itraconazole-susceptible Aspergillus fumigatus clinical isolate expressing cyp51A E130D mutant gene by CLSI method; assay type: functional
Aspergillus fumigatus [12] = assay: Antimicrobial activity against itraconazole-susceptible Aspergillus fumigatus clinical isolate expressing cyp51A L252L mutant gene by CLSI method; assay type: functional
Aspergillus fumigatus [13] = assay: Antimicrobial activity against itraconazole-susceptible Aspergillus fumigatus clinical isolate expressing cyp51A F46Y, G89G, M172V, N248T, D255E, L358L, E427K, C454C mutant gene by CLSI method; assay type: functional
Aspergillus fumigatus [14] = assay: Antimicrobial activity against itraconazole-resistant Aspergillus fumigatus clinical isolate expressing cyp51A L98H mutant gene by CLSI method; assay type: functional
Aspergillus fumigatus [15] = assay: Antimicrobial activity against itraconazole-resistant Aspergillus fumigatus clinical isolate expressing cyp51A L98H, Q88H mutant gene and by CLSI method; assay type: functional
Aspergillus fumigatus [16] = assay: Antimicrobial activity against itraconazole-resistant Aspergillus fumigatus clinical isolate expressing cyp51A G138C mutant gene by CLSI method; assay type: functional
Aspergillus fumigatus [17] = assay: Antimicrobial activity against itraconazole-resistant Aspergillus fumigatus clinical isolate expressing cyp51A L98H, A284A mutant gene by CLSI method; assay type: functional
Aspergillus fumigatus [18] = assay: Antimicrobial activity against itraconazole-resistant Aspergillus fumigatus clinical isolate expressing cyp51A L98H, S297T, F495 mutant gene by CLSI method; assay type: functional
Aspergillus fumigatus [19] = assay: Antimicrobial activity against itraconazole-susceptible Aspergillus fumigatus environmental isolate expressing cyp51A F46Y, G89G, M172V, L358L, C454C mutant gene by CLSI method
Aspergillus fumigatus [20] = assay: Antimicrobial activity against itraconazole-susceptible Aspergillus fumigatus clinical isolate expressing cyp51A F46Y, G89G mutant gene by CLSI method; assay type: functional
Aspergillus fumigatus [21] = assay: Antimicrobial activity against itraconazole-susceptible Aspergillus fumigatus clinical isolate expressing cyp51A F46Y, M172V, L358L, E427K, C454C mutant gene by CLSI method; assay type: functional
Aspergillus fumigatus [22] = assay: Antimicrobial activity against itraconazole-susceptible Aspergillus fumigatus clinical isolate expressing cyp51A F46Y, G89G, M172V, N248T, D255E, E427K mutant gene by CLSI method; assay type: functional
Aspergillus fumigatus [23] = assay: Antimicrobial activity against itraconazole-resistant Aspergillus fumigatus clinical isolate expressing cyp51A L98H, N125I mutant gene by CLSI method; assay type: functional
Aspergillus fumigatus [24] = assay: Antimicrobial activity against itraconazole-susceptible Aspergillus fumigatus clinical isolate expressing cyp51A S400I mutant gene by CLSI method; assay type: functional
Aspergillus fumigatus [25] = assay: Antimicrobial activity against itraconazole-resistant Aspergillus fumigatus clinical isolate expressing cyp51A L98H, F495I mutant gene by CLSI method; assay type: functional
Aspergillus fumigatus [26] = assay: Antimicrobial activity against itraconazole-resistant Aspergillus fumigatus clinical isolate expressing cyp51A L98H, L339L mutant gene by CLSI method; assay type: functional
Aspergillus fumigatus [27] = assay: Antimicrobial activity against itraconazole-resistant Aspergillus fumigatus clinical isolate expressing cyp51A M220I mutant gene by CLSI method; assay type: functional
Aspergillus fumigatus [28] = assay: Antimicrobial activity against itraconazole-resistant Aspergillus fumigatus clinical isolate expressing cyp51A M220R mutant gene by CLSI method; assay type: functional
Aspergillus fumigatus [29] = assay: Antimicrobial activity against itraconazole-resistant Aspergillus fumigatus clinical isolate expressing cyp51A F46Y, G89G, M172V, N248T, D255E, L358L, E427K and C454C mutant gene by CLSI method; assay type: functional
Aspergillus fumigatus [30] = assay: Antimicrobial activity against itraconazole-resistant Aspergillus fumigatus clinical isolate expressing cyp51A M220K mutant gene by CLSI method; assay type: functional

CCC(C)n1ncn(-c2ccc(N3CCN(c4ccc(OCC5COC(Cn6cncn6)(c6ccc(Cl)cc6Cl)O5)cc4)CC3)cc2)c1=O (stereo not given) [ITRACONAZOLE]
MIC (Aspergillus fumigatus [1]): 0.25 µg/mL (≈ 0.354 µM) | MIC (Aspergillus fumigatus [2]): > 16 µg/mL | MIC (Aspergillus fumigatus [3]): > 16 µg/mL | MIC (Aspergillus fumigatus [4]): > 16 µg/mL | MIC (Aspergillus fumigatus [5]): 0.25 µg/mL (≈ 0.354 µM) | MIC (Aspergillus fumigatus [6]): > 16 µg/mL | MIC (Aspergillus fumigatus [7]): > 16 µg/mL | MIC (Aspergillus fumigatus [8]): 0.125 µg/mL (≈ 0.177 µM) | MIC (Aspergillus fumigatus [9]): 8 µg/mL (≈ 11.3 µM) | MIC (Aspergillus fumigatus [10]): 0.125 µg/mL (≈ 0.177 µM) | MIC (Aspergillus fumigatus [11]): 0.5 µg/mL (≈ 0.709 µM) | MIC (Aspergillus fumigatus [12]): 0.25 µg/mL (≈ 0.354 µM) | MIC (Aspergillus fumigatus [13]): 0.25 µg/mL (≈ 0.354 µM) | MIC (Aspergillus fumigatus [14]): 4 µg/mL (≈ 5.67 µM) | MIC (Aspergillus fumigatus [15]): > 16 µg/mL | MIC (Aspergillus fumigatus [16]): > 16 µg/mL | MIC (Aspergillus fumigatus [17]): > 16 µg/mL | MIC (Aspergillus fumigatus [18]): 16 µg/mL (≈ 22.7 µM) | MIC (Aspergillus fumigatus [19]): 0.25 µg/mL (≈ 0.354 µM) | MIC (Aspergillus fumigatus [20]): 0.125 µg/mL (≈ 0.177 µM) | MIC (Aspergillus fumigatus [21]): 0.125 µg/mL (≈ 0.177 µM) | MIC (Aspergillus fumigatus [22]): 0.25 µg/mL (≈ 0.354 µM) | MIC (Aspergillus fumigatus [23]): > 16 µg/mL | MIC (Aspergillus fumigatus [24]): 1 µg/mL (≈ 1.42 µM) | MIC (Aspergillus fumigatus [25]): > 16 µg/mL | MIC (Aspergillus fumigatus [26]): > 16 µg/mL | MIC (Aspergillus fumigatus [27]): > 16 µg/mL | MIC (Aspergillus fumigatus [28]): > 16 µg/mL | MIC (Aspergillus fumigatus [29]): > 16 µg/mL | MIC (Aspergillus fumigatus [30]): > 16 µg/mL

CC[C@@H]([C@H](C)O)n1ncn(-c2ccc(N3CCN(c4ccc(OC[C@@H]5CO[C@@](Cn6cncn6)(c6ccc(F)cc6F)C5)cc4)CC3)cc2)c1=O [POSACONAZOLE]
MIC (Aspergillus fumigatus [1]): 0.063 µg/mL (≈ 0.0899 µM) | MIC (Aspergillus fumigatus [2]): 0.5 µg/mL (≈ 0.713 µM) | MIC (Aspergillus fumigatus [3]): 0.25 µg/mL (≈ 0.357 µM) | MIC (Aspergillus fumigatus [4]): > 16 µg/mL | MIC (Aspergillus fumigatus [5]): 0.063 µg/mL (≈ 0.0899 µM) | MIC (Aspergillus fumigatus [6]): 0.5 µg/mL (≈ 0.713 µM) | MIC (Aspergillus fumigatus [7]): 0.5 µg/mL (≈ 0.713 µM) | MIC (Aspergillus fumigatus [8]): 0.063 µg/mL (≈ 0.0899 µM) | MIC (Aspergillus fumigatus [9]): 0.125 µg/mL (≈ 0.178 µM) | MIC (Aspergillus fumigatus [10]): 0.031 µg/mL (≈ 0.0442 µM) | MIC (Aspergillus fumigatus [11]): 0.125 µg/mL (≈ 0.178 µM) | MIC (Aspergillus fumigatus [12]): 0.5 µg/mL (≈ 0.713 µM) | MIC (Aspergillus fumigatus [13]): 0.063 µg/mL (≈ 0.0899 µM) | MIC (Aspergillus fumigatus [14]): 0.25 µg/mL (≈ 0.357 µM) | MIC (Aspergillus fumigatus [15]): 0.25 µg/mL (≈ 0.357 µM) | MIC (Aspergillus fumigatus [16]): > 16 µg/mL | MIC (Aspergillus fumigatus [17]): 0.5 µg/mL (≈ 0.713 µM) | MIC (Aspergillus fumigatus [18]): 0.063 µg/mL (≈ 0.0899 µM) | MIC (Aspergillus fumigatus [19]): 0.125 µg/mL (≈ 0.178 µM) | MIC (Aspergillus fumigatus [20]): 0.016 µg/mL (≈ 0.0228 µM) | MIC (Aspergillus fumigatus [21]): 0.063 µg/mL (≈ 0.0899 µM) | MIC (Aspergillus fumigatus [22]): 0.063 µg/mL (≈ 0.0899 µM) | MIC (Aspergillus fumigatus [23]): 0.5 µg/mL (≈ 0.713 µM) | MIC (Aspergillus fumigatus [24]): 0.25 µg/mL (≈ 0.357 µM) | MIC (Aspergillus fumigatus [25]): 0.125 µg/mL (≈ 0.178 µM) | MIC (Aspergillus fumigatus [26]): 1 µg/mL (≈ 1.43 µM) | MIC (Aspergillus fumigatus [27]): 0.5 µg/mL (≈ 0.713 µM) | MIC (Aspergillus fumigatus [28]): 2 µg/mL (≈ 2.85 µM) | MIC (Aspergillus fumigatus [29]): 1 µg/mL (≈ 1.43 µM) | MIC (Aspergillus fumigatus [30]): > 16 µg/mL

C[C@@H](c1ncncc1F)[C@](O)(Cn1cncn1)c1ccc(F)cc1F [VORICONAZOLE]
MIC (Aspergillus fumigatus [1]): 2 µg/mL (≈ 5.73 µM) | MIC (Aspergillus fumigatus [2]): 4 µg/mL (≈ 11.5 µM) | MIC (Aspergillus fumigatus [3]): 0.25 µg/mL (≈ 0.716 µM) | MIC (Aspergillus fumigatus [4]): 0.25 µg/mL (≈ 0.716 µM) | MIC (Aspergillus fumigatus [5]): 0.25 µg/mL (≈ 0.716 µM) | MIC (Aspergillus fumigatus [6]): 1 µg/mL (≈ 2.86 µM) | MIC (Aspergillus fumigatus [7]): 4 µg/mL (≈ 11.5 µM) | MIC (Aspergillus fumigatus [8]): 0.5 µg/mL (≈ 1.43 µM) | MIC (Aspergillus fumigatus [9]): 0.25 µg/mL (≈ 0.716 µM) | MIC (Aspergillus fumigatus [10]): 0.5 µg/mL (≈ 1.43 µM) | MIC (Aspergillus fumigatus [11]): 0.5 µg/mL (≈ 1.43 µM) | MIC (Aspergillus fumigatus [12]): 1 µg/mL (≈ 2.86 µM) | MIC (Aspergillus fumigatus [13]): 0.25 µg/mL (≈ 0.716 µM) | MIC (Aspergillus fumigatus [14]): 2 µg/mL (≈ 5.73 µM) | MIC (Aspergillus fumigatus [15]): 8 µg/mL (≈ 22.9 µM) | MIC (Aspergillus fumigatus [16]): 8 µg/mL (≈ 22.9 µM) | MIC (Aspergillus fumigatus [17]): 4 µg/mL (≈ 11.5 µM) | MIC (Aspergillus fumigatus [18]): 1 µg/mL (≈ 2.86 µM) | MIC (Aspergillus fumigatus [19]): 1 µg/mL (≈ 2.86 µM) | MIC (Aspergillus fumigatus [20]): 0.5 µg/mL (≈ 1.43 µM) | MIC (Aspergillus fumigatus [21]): 1 µg/mL (≈ 2.86 µM) | MIC (Aspergillus fumigatus [22]): 1 µg/mL (≈ 2.86 µM) | MIC (Aspergillus fumigatus [23]): 8 µg/mL (≈ 22.9 µM) | MIC (Aspergillus fumigatus [24]): 2 µg/mL (≈ 5.73 µM) | MIC (Aspergillus fumigatus [25]): 2 µg/mL (≈ 5.73 µM) | MIC (Aspergillus fumigatus [26]): 8 µg/mL (≈ 22.9 µM) | MIC (Aspergillus fumigatus [27]): 1 µg/mL (≈ 2.86 µM) | MIC (Aspergillus fumigatus [28]): 2 µg/mL (≈ 5.73 µM) | MIC (Aspergillus fumigatus [29]): > 16 µg/mL | MIC (Aspergillus fumigatus [30]): 2 µg/mL (≈ 5.73 µM)
